Data published in patent US4608381A, “Antiinflammatory 2-(trifluoroethylsulfonyl)benzimidazoles” (Boehringer Ingelheim Pharmaceuticals, Inc., priority 1985, dated 1986).

Tests used:
male CD rats = test: Adjuvant-Induced Developing Arthritis Assay; type: in vivo; conditions: Rattus norvegicus, po, 336 h, 14 days from adjuvant injection, non-injected hind paw volume; for inhibition in vivo at 50 mg/kg: 50 mg/kg orally once daily; for inhibition in vivo at 25 mg/kg: 25 mg/kg orally once daily
Description: This assay is used to determine the ability of compounds to affect the immunological processes involved in the induction and development of arthritis and represents a standard model for which there is good correlation with human efficacy. It is described and discussed in Newbould, B. B., Chemotherapy of Arthritis Induced in Rats by Mycobacterial Adjuvant., Brit. J. Pharmacol. 21:127-136 (1963) and Federation Proceedings, Models Used for the Study and Therapy of Rheumatoid Arthritis - Symposium of the American Society for Pharmacology and Experimental Therapeutics, Vol. 32, No. 2 (1973). The procedural details and results observed in the experiments reported here are as follows.
(§1) Polyarthritis is induced in male CD rats (150-170 g) as follows. Heat-killed Mycobacterium butyricum (0.1 ml of a […] 5 mg/ml adjuvant suspension in light mineral oil) is injected subcutaneously into the plantar surface of the right hind foot of each animal. At least 10 rats are used in each test group. Animals are dosed orally with one of the compounds under assay immediately after adjuvant injection, and once daily for a total of 14 days. Untreated normal and arthritic control groups are used as comparison for test compound effect. Foot volumes are measured 24 hours after the final dose by mercury displacement to the lateral malleolus. Mean displacement volumes and their standard errors are calculated for the non-injected hind paws.
The results are expressed as the percent of the mean displacement volume of the control observed in animals treated with the specified compound at the indicated daily dosage level and are as set forth in Table 1: […]

[1] = system: Rats in which polyarthritis has become established; test: Adjuvant-Induced Established Arthritis Assay; type: in vivo, rat; conditions: days 14-27, non-injected paw volume
Procedure: as §1
This assay is used to determine the ability of compounds to affect an established chronic inflammatory condition.
Polyarthritis is induced as described in Example 8. Rats in which polyarthritis has become established are selected 14 days after receiving the adjuvant suspension. They are treated daily with oral doses of test compound for 14 days (days 14-27). Foot volumes of the non-injected paws are measured as in 8, 24 hours after the final dose. Untreated arthritic control groups are used as comparison for test compound effect as described in Example 8.

SMILES: Cc1cc2nc(S(=O)(=O)CC(F)(F)F)[nH]c2cc1F [Example 8, 6-Fluoro-5-methYl-2-(2,2,2-trifluoroethylsulfonyl)-1H-benzimidazole]
- inhibition in vivo at 50 mg/kg (male CD rats): 64%

SMILES: Cc1cc2nc(S(=O)(=O)CC(F)(F)F)[nH]c2cc1C [Example 6, 5,6-Dimethyl-2-(2,2,2-trifluoroethylsulfonyl)-1H-benzimidazole]
- inhibition in vivo at 25 mg/kg (male CD rats): 18%

SMILES: CCc1ccc2[nH]c(S(=O)(=O)CC(F)(F)F)nc2c1 [Example 7, 5-Ethyl-2-(2,2,2-trifluoroethylsulfonyl)-1H-benzimidazole]
- inhibition in vivo at 25 mg/kg (male CD rats): 34%

SMILES: O=S(=O)(CC(F)(F)F)c1nc2cc(Cl)c(Cl)cc2[nH]1 [Example 3, 5,6-Dichloro-2-(2,2,2-trifluoroethylsulfonyl)-1H-benzimidazole]
- inhibition in vivo at 25 mg/kg (male CD rats): 24%

SMILES: O=S(=O)(CC(F)(F)F)c1nc2cc(Cl)ccc2[nH]1 [Example 2, 5-Chloro-2-(2,2,2-trifluoroethylsulfonyl)-1H-benzimidozole]
- inhibition in vivo at 25 mg/kg (male CD rats): 28%

SMILES: Cc1ccc2[nH]c(S(=O)(=O)CC(F)(F)F)nc2c1 [Example 1, 5-Methyl-2-(2,2,2-trifluoroethylsulfonyl)-1H-benzimidazole]
- inhibition in vivo at 25 mg/kg (male CD rats): 52%
- inhibition in vivo at 50 mg/kg (male CD rats): 72%
- % Inhibition ([1]; 50 mg/kg orally daily): 30%
- % Inhibition ([1]; 75 mg/kg orally daily): 42%
- % Inhibition ([1]; 100 mg/kg orally daily): 60%

SMILES: O=S(=O)(CC(F)(F)F)c1nc2ccccc2[nH]1 [Example 4, 2-(2,2,2-Trifluoroethylsulfonyl)-1H-benzimidazole]
- inhibition in vivo at 25 mg/kg (male CD rats): 52%
- % Inhibition ([1]; 50 mg/kg orally daily): 45%

SMILES: O=S(=O)(CC(F)(F)F)c1nc2cc(F)ccc2[nH]1 [Example 5, 5-Fluoro-2-(2,2,2-trifluoroethylsulfonyl)-1H-benzimidazole]
- inhibition in vivo at 25 mg/kg (male CD rats): 43%
